From patent US6518261B2, “Use of eugenol in combination with other chemopreventative agents as prophylaxis for cancers” (Oncology Sciences Corporation, priority 2000, dated 2003) come the findings set out here.

For one assay, the system named is LNCaP cells. In words: Cell growth by trypan blue exclusion cell counting, confirmed by cell proliferation assay kit. It counts as cell-based, human. Particulars: 72 hours of treatment, FIG. 2. How it is done:
These cells were treated with different concentrations of eugenol (0.5, 1, 3, 5 and 10 mM). Cell growth was monitored every 24 hours by counting the increase in the cell number using trypan blue exclusion assay.
Cells were treated with either eugenol (0.25, 0.5, 0.75 or 1 mM) or 2-ME (0.5, 1, 2 or 3 mM) or both (0.25, 0.5, 0.75 or 1 mM of eugenol along with 0.5 mM of 2-ME). Cell growth was measured following 72 hours of treatment as described above.

A further assay deals with suspect cells. The experiment in a line: Cell cycle analysis. Particulars: cell cycle analysis data. Type of assay: cell-based. The text has this:
Therefore induction of cell death pathway by 2-ME and growth inhibition by eugenol through a different pathway presents a tremendous new weapon for use in preventing and combating cancer.

For `COc1cc2c(cc1O)CC[C@@H]1[C@@H]2CC[C@]2(C)[C@@H](O)CC[C@@H]12` [2-ME, 2-methoxyestradiol], in the assay on LNCaP cells (0.5 mM of 2-ME), the “inhibition of growth of LNCaP cells” value is given as “about 20%”. Further, in the assay with suspect cells, the “effect on cell cycle profile / mechanism of growth inhibition” value is “inducing apoptosis and blocking cells in G2/M phase”.
As to `C=CCc1ccc(O)c(OC)c1` [eugenol], the “inhibition of growth of LNCaP cells” value with LNCaP cells (0.25 mM of eugenol) is reported as “about 30%”. Further, in the assay with suspect cells, the “effect on cell cycle profile / mechanism of growth inhibition” value is recorded as “without any significant alterations in the cells cycle profile”.
